This is an account of results in ChEMBL document CHEMBL3525969 (Drug Metab Dispos, 2011).

The target of data set [1] is T1, CYP3A4 (Homo sapiens, UniProt P08684). Briefly: Ratio of Kinact to Ki for CYP3A4 (unknown origin). Type of data set: ADME.
The target in data set [2] is T2, CYP3A5 (Homo sapiens, UniProt P20815). Briefly: Inhibition of human His-tagged CYP3A5 expressed in Escherichia coli TOPP3 using BFC as substrate assessed as residual activity by fluorescence assay in presence of cytochrome b5. Type of data set: ADME. The settings on record: probe BFC.
The target in data set [3] is T3, Cytochrome P450 3A4 (Homo sapiens, UniProt P08684). Put plainly: Inhibition of His-tagged CYP3A4 (unknown origin) expressed in Escherichia coli TOPP3 using BFC as substrate after 15 mins by fluorescence assay in presence of NADPH. Type of data set: ADME. The settings on record: 0.25 h.
The target in data set [4] is T3, Cytochrome P450 3A4. Briefly: Inhibition of His-tagged CYP3A4 (unknown origin) expressed in Escherichia coli TOPP3 using BFC as substrate after 15 mins by fluorescence assay in presence of NADPH and cytochrome b5. It counts as ADME. The settings on record: 0.25 h.
Data set [5] in a line: Cmax in human. It counts as ADME, organism-based. The settings on record: in vivo.
For data set [6], the target named is T4, Cytochrome P450 2B6 (Homo sapiens, UniProt P20813).
T4 sequence (P20813 whole entry): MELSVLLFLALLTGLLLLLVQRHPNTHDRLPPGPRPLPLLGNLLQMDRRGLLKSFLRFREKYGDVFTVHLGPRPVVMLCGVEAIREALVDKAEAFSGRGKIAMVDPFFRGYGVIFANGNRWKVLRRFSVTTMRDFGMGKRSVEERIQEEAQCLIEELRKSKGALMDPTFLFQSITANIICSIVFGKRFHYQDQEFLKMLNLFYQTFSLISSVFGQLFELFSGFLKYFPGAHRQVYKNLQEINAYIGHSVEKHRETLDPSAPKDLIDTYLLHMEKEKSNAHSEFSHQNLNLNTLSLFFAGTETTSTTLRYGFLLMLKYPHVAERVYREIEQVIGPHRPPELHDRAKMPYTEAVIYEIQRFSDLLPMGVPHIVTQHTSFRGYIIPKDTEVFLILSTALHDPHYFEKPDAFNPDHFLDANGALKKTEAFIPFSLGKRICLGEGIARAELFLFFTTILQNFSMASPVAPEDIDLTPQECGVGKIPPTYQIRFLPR
Put plainly: Inhibition of human His-tagged CYP2B6 expressed in Escherichia coli TOPP3 using 7-ethoxy-4-(trifluoromethyl)coumarin as substrate after 15 mins by fluorescence assay in presence of NADPH. It counts as ADME. The settings on record: 0.25 h.

The target in data set [7] is T4, Cytochrome P450 2B6. Put plainly: Inhibition of human His-tagged CYP2B6 expressed in Escherichia coli TOPP3 using 7-ethoxy-4-(trifluoromethyl)coumarin as substrate after 15 mins by fluorescence assay in presence of NADPH and cytochrome b5. The settings on record: 0.25 h. Type of data set: ADME.
For data set [8], the target named is T5, Cytochrome P450 2D6 (Homo sapiens, UniProt P10635). Put plainly: Inhibition of human His-tagged CYP2D6 expressed in Escherichia coli TOPP3 using 7-ethoxy-4-(trifluoromethyl)coumarin as substrate after 15 mins by fluorescence assay in presence of NADPH. It counts as ADME. The settings on record: 0.25 h.
In data set [9] the target is T5, Cytochrome P450 2D6. Put plainly: Inhibition of human His-tagged CYP2D6 expressed in Escherichia coli TOPP3 using 7-ethoxy-4-(trifluoromethyl)coumarin as substrate after 15 mins by fluorescence assay in presence of NADPH and cytochrome b5. It counts as ADME. The settings on record: 0.25 h.
The target of data set [10] is T6, Cytochrome P450 3A5 (Homo sapiens, UniProt P20815). Put plainly: Inhibition of human His-tagged CYP3A5 expressed in Escherichia coli TOPP3 using BFC as substrate after 15 mins by fluorescence assay in presence of NADPH. Type of data set: ADME. The settings on record: 0.25 h.
For data set [11], the target named is T6, Cytochrome P450 3A5. Briefly: Inhibition of human His-tagged CYP3A5 expressed in Escherichia coli TOPP3 using BFC as substrate after 15 mins by fluorescence assay in presence of NADPH and cytochrome b5. It counts as ADME. The settings on record: 0.25 h.
The target in data set [12] is T3, Cytochrome P450 3A4. Briefly: Inhibition of human His-tagged CYP3A4 expressed in Escherichia coli TOPP3 using BFC as substrate after 15 mins by fluorescence assay in presence of NADPH and cytochrome b5. It counts as ADME. The settings on record: 0.25 h.
Data set [13] deals with T3, Cytochrome P450 3A4. Put plainly: Inhibition of human His-tagged CYP3A4 expressed in Escherichia coli TOPP3 using BFC as substrate at 10 to 100 uM by fluorescence assay in presence of NADPH and cytochrome b5. The settings on record: TDE = time-dependent effect. Type of data set: ADME.
For data set [14], the target named is T1, CYP3A4. Briefly: Inhibition of human His-tagged CYP3A4 expressed in Escherichia coli TOPP3 using BFC as substrate at 100 uM after 30 mins in presence of NADPH and cytochrome b5. Type of data set: ADME. The settings on record: probe BFC.
For data set [15], the target named is T1, CYP3A4. Briefly: Inhibition of human His-tagged CYP3A4 expressed in Escherichia coli TOPP3 using BFC as substrate at 100 uM after 30 mins by spectrophotometry in presence of NADPH and cytochrome b5 relative to control. The settings on record: probe BFC. It counts as ADME.
In data set [16] the target is T3, Cytochrome P450 3A4. Put plainly: Inhibition of human His-tagged CYP3A4 expressed in Escherichia coli TOPP3 using BFC as substrate assessed as unmodified heme at 100 uM after 30 mins by HPLC analysis in presence of NADPH and cytochrome b5. It counts as ADME. The settings on record: 0.5 h.
Data set [17] addresses T1, CYP3A4. Put plainly: Inhibition of human His-tagged CYP3A4 expressed in Escherichia coli TOPP3 using BFC as substrate assessed as residual activity by fluorescence assay in presence of cytochrome b5. Type of data set: ADME. The settings on record: probe BFC.
Data set [18] deals with T1, CYP3A4. Briefly: Inhibition of human His-tagged CYP3A4 expressed in Escherichia coli TOPP3 using BFC as substrate assessed as residual activity after 10 mins by fluorescence assay in presence of NADPH and cytochrome b5 relative to control. It counts as ADME. The settings on record: probe BFC, read-out: Activity.
Data set [19] addresses T1, CYP3A4. Put plainly: Inhibition of human His-tagged CYP3A4 expressed in Escherichia coli TOPP3 using BFC as substrate assessed as residual activity after 20 mins by fluorescence assay in presence of NADPH and cytochrome b5 relative to control. Type of data set: ADME. The settings on record: probe BFC, read-out: Activity.
Data set [20] has as its target T1, CYP3A4. Put plainly: Inhibition of human His-tagged CYP3A4 expressed in Escherichia coli TOPP3 using BFC as substrate assessed as residual activity after 30 mins by fluorescence assay in presence of NADPH and cytochrome b5 relative to control. Type of data set: ADME. The settings on record: probe BFC, read-out: Activity.
For data set [21], the target named is T2, CYP3A5. Put plainly: Inhibition of human His-tagged CYP3A5 expressed in Escherichia coli TOPP3 using BFC as substrate assessed as residual activity after 10 mins by fluorescence assay in presence of NADPH and cytochrome b5 relative to control. Type of data set: ADME. The settings on record: probe BFC, read-out: Activity.
The target in data set [22] is T2, CYP3A5. Put plainly: Inhibition of human His-tagged CYP3A5 expressed in Escherichia coli TOPP3 using BFC as substrate assessed as residual activity after 20 mins by fluorescence assay in presence of NADPH and cytochrome b5 relative to control. It counts as ADME. The settings on record: probe BFC, read-out: Activity.
Data set [23] addresses T2, CYP3A5. Briefly: Inhibition of human His-tagged CYP3A5 expressed in Escherichia coli TOPP3 using BFC as substrate assessed as residual activity after 30 mins by fluorescence assay in presence of NADPH and cytochrome b5 relative to control. Type of data set: ADME. The settings on record: probe BFC, read-out: Activity.
Data set [24] concerns the target T3, Cytochrome P450 3A4. Put plainly: Inhibition of human His-tagged CYP3A4 expressed in Escherichia coli TOPP3 using BFC as substrate at 100 uM after 30 mins by spectrophotometry in presence of cytochrome b5. Type of data set: ADME. The settings on record: 0.5 h.

T3 sequence (P08684 whole entry): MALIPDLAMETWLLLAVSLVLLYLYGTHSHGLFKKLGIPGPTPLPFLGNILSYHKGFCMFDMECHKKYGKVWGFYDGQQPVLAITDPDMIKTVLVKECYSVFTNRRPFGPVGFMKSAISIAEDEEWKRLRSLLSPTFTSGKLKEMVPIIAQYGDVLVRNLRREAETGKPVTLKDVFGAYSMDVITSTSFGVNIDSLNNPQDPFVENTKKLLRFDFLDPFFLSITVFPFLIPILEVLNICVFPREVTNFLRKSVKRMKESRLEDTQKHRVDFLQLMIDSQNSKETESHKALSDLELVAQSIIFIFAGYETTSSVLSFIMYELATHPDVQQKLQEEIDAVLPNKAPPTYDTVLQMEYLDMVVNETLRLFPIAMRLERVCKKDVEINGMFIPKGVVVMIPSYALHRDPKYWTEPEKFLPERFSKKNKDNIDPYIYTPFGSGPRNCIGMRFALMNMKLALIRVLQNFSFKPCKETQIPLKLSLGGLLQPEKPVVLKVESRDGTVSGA
T1 sequence (P08684 whole entry): as above
T2 sequence (P20815 whole entry): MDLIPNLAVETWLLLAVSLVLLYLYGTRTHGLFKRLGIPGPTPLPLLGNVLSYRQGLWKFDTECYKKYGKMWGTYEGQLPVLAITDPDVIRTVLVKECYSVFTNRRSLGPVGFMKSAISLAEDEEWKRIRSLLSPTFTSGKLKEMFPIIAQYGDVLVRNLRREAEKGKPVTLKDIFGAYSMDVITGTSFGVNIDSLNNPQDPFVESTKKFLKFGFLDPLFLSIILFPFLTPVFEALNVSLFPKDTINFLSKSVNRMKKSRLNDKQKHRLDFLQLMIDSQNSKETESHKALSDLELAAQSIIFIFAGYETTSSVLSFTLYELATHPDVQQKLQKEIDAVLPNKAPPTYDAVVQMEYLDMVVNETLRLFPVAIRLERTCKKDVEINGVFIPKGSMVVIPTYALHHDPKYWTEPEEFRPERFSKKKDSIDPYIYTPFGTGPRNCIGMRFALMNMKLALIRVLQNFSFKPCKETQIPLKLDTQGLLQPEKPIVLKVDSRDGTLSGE
T6 sequence (P20815 whole entry): as above
T5 sequence (P10635 whole entry): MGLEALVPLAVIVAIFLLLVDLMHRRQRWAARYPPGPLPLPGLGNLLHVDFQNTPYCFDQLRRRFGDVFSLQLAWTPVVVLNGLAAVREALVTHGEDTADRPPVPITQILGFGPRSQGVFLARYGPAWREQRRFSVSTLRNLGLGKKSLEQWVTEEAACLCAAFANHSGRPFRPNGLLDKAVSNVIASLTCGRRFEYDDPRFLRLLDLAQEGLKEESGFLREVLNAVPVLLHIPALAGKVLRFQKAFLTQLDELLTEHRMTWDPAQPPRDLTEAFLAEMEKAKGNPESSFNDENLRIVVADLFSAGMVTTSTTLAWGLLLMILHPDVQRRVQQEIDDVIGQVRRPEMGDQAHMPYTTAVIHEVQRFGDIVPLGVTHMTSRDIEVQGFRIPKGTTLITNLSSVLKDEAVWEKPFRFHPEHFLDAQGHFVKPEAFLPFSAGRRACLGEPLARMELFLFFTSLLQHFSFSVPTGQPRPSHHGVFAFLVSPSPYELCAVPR

Broadly, the kinact/KI is the second-order rate constant of inactivation. In the case of `CC(C)=CCC/C(C)=C/COc1c2ccoc2cc2oc(=O)ccc12` [BERGAMOTTIN], in [1], the kinact/KI was 667 M⁻¹ s⁻¹.

`C#C[C@]1(O)CC[C@H]2[C@@H]3CCc4cc(O)ccc4[C@H]3CC[C@@]21C` [ETHINYL ESTRADIOL]: in [1], the inactivation efficiency (kinact/KI) was 667 M⁻¹ s⁻¹.

As to `CC#C[C@]1(O)CC[C@H]2[C@@H]3CCC4=CC(=O)CCC4=C3[C@@H](c3ccc(N(C)C)cc3)C[C@@]21C` [MIFEPRISTONE], in data set [1], the inactivation efficiency (kinact/KI) is 333 M⁻¹ s⁻¹.

The term Cmax denotes the maximum level reached in the sampled fluid or tissue. One may read the inhibition as the share of the control response that was lost under treatment. Regarding `O=C(Nc1ccc(OC(F)(F)F)cc1)c1sccc1NCc1ccnc2ccccc12` [OSI-930], the activity in [2] and in data set [17] was 100% each time. Besides, the “inhibition (INH)” value in data set [3] is “Active”; in data set [4], “Active”; in data set [6] it was “Not Active”; in data set [7] it was “Not Active”; in data set [8], “Not Active”; in data set [9], “Not Active”. Further, the “inhibition (INH)” value in [10] is on record as “Not Active”; in data set [11], “Not Active”; in data set [12], “Dose-dependent effect”; in [13], “tde”; in data set [16], “Active”; in data set [24], “Not Active”. Further, the Cmax in [5] is 1700 nM. The inhibition at 0.5 h, 100 µM amounted to 75% in data set [14] and 70% in [15]. Further, the results for the activity at 10 min in [18] and in data set [21] were 71% and 113%, respectively. The activity at 20 min in [19] came to 50%; in data set [22] it was 109%. The activity at 0.5 h amounted to 39% in data set [20] and 98% in data set [23].

Regarding `CC/C(=C(\c1ccccc1)c1ccc(OCCN(C)C)cc1)c1ccccc1` [TAMOXIFEN], in data set [1], the kinact/KI is 333 M⁻¹ s⁻¹.
